Format in all cases: in vivo
Test [1] concerns ERYSIPHE GRAMINIS (BARLEY). Description: Foliar fungal disease test on plants (foliar spray plus root drench), Erysiphe graminis on barley. The conditions noted are these: 100 ppm active ingredient sprayed on foliage, root drench approximately 40 ppm a.i./dry soil; plants inoculated 24 hours before treatment. The protocol:
(§1) The compounds were tested against a variety of foliar fungal diseases of plants. The technique employed was as follows. The plants were grown in John Innes Potting Compost (No 1 or 2) in 4 cm diameter minipots. The test compounds were formulated either by bead milling with aqueous Dispersol T or as a solution in acetone or acetone/ethanol which was diluted to the required concentration immediately before use. For the foliage diseases, the formulations (100 ppm active ingredient) were sprayed on to the foliage and applied to the roots of the plants in the soil. The sprays were applied to maximum retention and the root drenches to a final concentration equivalent to approximately 40 ppm a.i./dry soil. Tween 20, to give a final concentration of 0.05%, was added when the sprays were applied to cereals. For most of the tests the compound was applied to the soil (roots) and to the foliage (by spraying) one or two days before the plant was inoculated with the disease. An exception was the test on Erysiphe graminis in which the plants were inoculated 24 hours before treatment. Foliar pathogens were applied by spray as spore suspensions onto the leaves of test plants. After inoculation, the plants were put into an appropriate environment to allow infection to proceed and then incubated until the disease was ready for assessment. The period between inoculation and assessment varied from four to fourteen days according to the disease and environment. The disease control was recorded by the following grading:- • 4 = no disease • 3 = trace - 5% of disease on untreated plants • 2 = 6-25% of disease on untreated plants • 1 = 26-59% of disease on untreated plants • 0 = 60-100% of disease on untreated plants

The subject of test [2] is CERCOSPORA ARACHIDICOLA (PEANUT). Description: Foliar fungal disease test on plants (foliar spray plus root drench), Cercospora arachidicola on peanut. The conditions noted are these: 100 ppm active ingredient sprayed on foliage, root drench approximately 40 ppm a.i./dry soil; applied one or two days before inoculation. The protocol: as §1
The subject of test [3] is VENTURIA INAEQUALIS (APPLE). Description: Foliar fungal disease test on plants (foliar spray plus root drench), Venturia inaequalis on apple. The settings on record: 100 ppm active ingredient sprayed on foliage, root drench approximately 40 ppm a.i./dry soil; applied one or two days before inoculation. The protocol: as §1
Test [4] concerns PUCCINIA RECONDITA (WHEAT). As to the kind of experiment: Foliar fungal disease test on plants (foliar spray plus root drench), Puccinia recondita on wheat. The conditions noted are these: 100 ppm active ingredient sprayed on foliage, root drench approximately 40 ppm a.i./dry soil; applied one or two days before inoculation. As to the method: as §1

On to `C[C@@H]1CN(C[C@@H]2C[C@H]2c2ccc(C(C)(C)C)cc2)C[C@H](C)O1` (relative stereo) [Compound 4, 4-[2-(p-t-butylphenyl)-trans-cyclopropylmethyl]-2,6-cis-dimethylmorpholine], for which the “disease control grading, ERYSIPHE GRAMINIS (BARLEY)” value (shortened to “disease control grading … (BARLEY)”) in test [1] is reported as 4 (4 = no disease). Besides, the “disease control grading, CERCOSPORA ARACHIDICOLA (PEANUT)” value (“disease control grading … (PEANUT)” below) in test [2] is given as 0 (0 = 60-100% of disease on untreated plants). Also, the “disease control grading, VENTURIA INAEQUALIS (APPLE)” value (“disease control grading … (APPLE)” below) in test [3] is given as 3 (3 = trace - 5% of disease on untreated plants). Moreover, the “disease control grading, PUCCINIA RECONDITA (WHEAT)” value (shortened to “disease control grading … (WHEAT)”) in test [4] was 3 (3 = trace - 5% of disease on untreated plants).
In the case of `C[C@@H]1CN(C[C@@H]2C[C@@]2(C)c2ccc(C(C)(C)C)cc2)C[C@H](C)O1` (relative stereo) [Compound 15], the “disease control grading … (BARLEY)” value in test [1] is listed as 4 (4 = no disease). In addition, the “disease control grading … (APPLE)” value in test [3] is given as 3 (3 = trace - 5% of disease on untreated plants). In addition, the “disease control grading … (WHEAT)” value in test [4] is 3 (3 = trace - 5% of disease on untreated plants).
With `CC(C)(C)c1ccc(C2CC2CC2CCNCC2)cc1` (stereo not drawn) [Compound 1, 4-[2-(p-t-butylphenyl)-cyclopropylmethyl]-piperidine], in test [1], the “disease control grading … (BARLEY)” value is given as 4 (4 = no disease). Also, the “disease control grading … (PEANUT)” value in test [2] is on record as 1 (1 = 26-59% of disease on untreated plants). The “disease control grading … (APPLE)” value in test [3] was 0 (0 = 60-100% of disease on untreated plants). Further, the “disease control grading … (WHEAT)” value in test [4] is listed as 4 (4 = no disease).
As for `CC(C)(C)c1ccc(C2C(CN3CCOCC3)C2(C)C)cc1` (stereo not drawn) [Compound 8, 4-[2-(p-t-butylphenyl)-3,3-dimethylcyclopropylmethyl]-morpholine], the “disease control grading … (BARLEY)” value in test [1] is recorded as 4 (4 = no disease). Also, the “disease control grading … (PEANUT)” value in test [2] is 3 (3 = trace - 5% of disease on untreated plants). Also, the “disease control grading … (APPLE)” value in test [3] is listed as 3 (3 = trace - 5% of disease on untreated plants). The “disease control grading … (WHEAT)” value in test [4] was 0 (0 = 60-100% of disease on untreated plants).

Values taken from EP0188887A1, “Tertiary amine compounds” (IMPERIAL CHEMICAL INDUSTRIES PLC, priority 1985, dated 1986).
